From ChEMBL document CHEMBL5576135, “Discovery of Indolo[3,2-c]isoquinoline Derivatives as Novel Top1/2 Dual Inhibitors with Orally Efficacious Antitumor Activity and Low Toxicity” (J Med Chem, 2024)
The source made the active and inactive calls. The calls are words filed in the database; no cut-off is given here.

How the values were obtained:
[1] = Toxicity in Kunming mouse assessed as change in organ coefficient of heart at 100 mg/kg,po administration for 2 weeks; assay type: organism-based; details: in vivo, 336 h
[2] = target: DNA topoisomerase 2-alpha (Homo sapiens) (UniProt P11388); assay: Inhibition of Topoisomerase 2 (unknown origin) using pBR322 DNA as substrate at 0.5 uM incubated for 15 mins by EtBr staining based agarose gel electrophoresis method
Sequence of DNA topoisomerase 2-alpha (Homo sapiens) (P11388 whole entry): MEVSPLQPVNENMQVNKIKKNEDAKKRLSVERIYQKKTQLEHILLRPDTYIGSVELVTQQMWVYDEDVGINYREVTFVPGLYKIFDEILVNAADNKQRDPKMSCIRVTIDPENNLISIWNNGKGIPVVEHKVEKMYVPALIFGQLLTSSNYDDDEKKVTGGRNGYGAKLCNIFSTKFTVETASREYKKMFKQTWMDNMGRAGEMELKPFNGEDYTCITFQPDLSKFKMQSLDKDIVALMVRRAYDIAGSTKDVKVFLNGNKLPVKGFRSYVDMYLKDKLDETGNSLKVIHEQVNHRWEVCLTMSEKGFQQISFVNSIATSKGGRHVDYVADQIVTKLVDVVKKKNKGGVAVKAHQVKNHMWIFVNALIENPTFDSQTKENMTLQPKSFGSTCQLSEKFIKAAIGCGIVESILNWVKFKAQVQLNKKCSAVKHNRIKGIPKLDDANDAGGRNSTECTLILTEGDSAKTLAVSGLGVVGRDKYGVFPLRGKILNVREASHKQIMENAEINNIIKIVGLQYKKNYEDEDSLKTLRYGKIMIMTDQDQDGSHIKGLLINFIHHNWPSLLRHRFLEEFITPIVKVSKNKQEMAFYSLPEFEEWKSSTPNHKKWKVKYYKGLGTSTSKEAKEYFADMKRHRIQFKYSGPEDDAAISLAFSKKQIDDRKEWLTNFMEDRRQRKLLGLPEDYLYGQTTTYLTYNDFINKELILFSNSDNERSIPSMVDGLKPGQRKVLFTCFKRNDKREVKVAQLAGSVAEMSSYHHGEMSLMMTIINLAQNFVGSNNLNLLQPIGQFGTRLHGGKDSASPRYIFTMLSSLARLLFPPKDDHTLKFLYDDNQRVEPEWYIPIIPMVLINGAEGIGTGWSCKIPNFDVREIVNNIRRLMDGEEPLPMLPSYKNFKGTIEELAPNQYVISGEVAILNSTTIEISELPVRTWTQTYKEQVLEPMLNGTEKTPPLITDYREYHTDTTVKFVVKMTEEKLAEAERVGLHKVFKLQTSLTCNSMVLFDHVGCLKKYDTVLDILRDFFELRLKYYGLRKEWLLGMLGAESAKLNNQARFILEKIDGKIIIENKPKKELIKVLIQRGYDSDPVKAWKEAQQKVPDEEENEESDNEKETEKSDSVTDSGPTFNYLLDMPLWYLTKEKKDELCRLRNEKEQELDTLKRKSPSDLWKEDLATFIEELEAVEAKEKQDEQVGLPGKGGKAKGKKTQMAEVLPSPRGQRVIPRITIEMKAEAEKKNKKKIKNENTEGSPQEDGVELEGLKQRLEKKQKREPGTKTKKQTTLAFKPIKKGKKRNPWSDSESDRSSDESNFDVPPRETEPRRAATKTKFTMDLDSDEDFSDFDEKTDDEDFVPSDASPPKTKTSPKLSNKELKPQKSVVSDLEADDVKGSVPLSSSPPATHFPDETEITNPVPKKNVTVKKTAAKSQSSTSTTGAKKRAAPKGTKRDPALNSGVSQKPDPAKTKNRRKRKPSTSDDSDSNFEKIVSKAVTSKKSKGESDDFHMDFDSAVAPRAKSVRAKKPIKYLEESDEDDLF

[3] = Toxicity in Kunming mouse assessed as change in organ coefficient of lung at 100 mg/kg,po administration for 2 weeks; assay type: organism-based; details: in vivo, 336 h
DU-145 = assay: Antiproliferative activity against human DU-145 cells assessed as inhibition of cell growth incubated for 96 hrs by MTT based ELISA; assay type: functional; details: DU-145, 96 h
NCI-H446 [4] = assay: Induction of DNA damage in human NCI-H446 cells assessed as increase in DNA fragments at 8 uM incubated for 48 hrs by comet assay; assay type: functional, cell-based
NCI-H2228 = assay: Antiproliferative activity against human NCI-H2228 cells assessed as inhibition of cell growth incubated for 96 hrs by MTT based ELISA; assay type: functional; details: NCI-H2228, 96 h
[5] = Half life in ICR mouse at 10 mg/kg,po measured upto 24 hrs by LC-MS/MS analysis; assay type: ADME, organism-based; details: in vivo
NCI-H446 [6] = assay: Induction of DNA damage in human NCI-H446 cells assessed as tail DNA at 8 uM incubated for 48 hrs by comet assay relative to control; assay type: functional
[7] = Toxicity in Kunming mouse assessed as morphological change in kidney at 100 mg/kg,po administration for 2 weeks; assay type: organism-based; details: in vivo, 336 h
Huh-7 = assay: Antiproliferative activity against human Huh-7 cells assessed as inhibition of cell growth incubated for 96 hrs by MTT based ELISA; assay type: functional; details: Huh-7, 96 h
NCI-H446 [8] = assay: Inhibition of cell migration in human NCI-H446 cells at 2 uM incubated for 48 hrs by phase-contrast microscopic analysis relative to control; assay type: functional
[9] = Toxicity in Kunming mouse assessed as change in serum creatinine level at 100 mg/kg,po administration for 2 weeks; assay type: organism-based; details: in vivo, 336 h
[10] = Toxicity in Kunming mouse assessed as lethal dose at po administration for 2 weeks; assay type: organism-based; details: in vivo
MCF7 = assay: Antiproliferative activity against human MCF7 cells assessed as inhibition of cell growth incubated for 96 hrs by MTT based ELISA; assay type: functional; details: MCF7, 96 h
MDA-MB-231 = assay: Antiproliferative activity against human MDA-MB-231 cells assessed as inhibition of cell growth incubated for 96 hrs by MTT based ELISA; assay type: functional; details: MDA-MB-231, 96 h
[11] = Cmax in ICR mouse at 10 mg/kg,po measured upto 24 hrs by LC-MS/MS analysis; assay type: ADME, organism-based; details: in vivo
HCT-116 = assay: Antiproliferative activity against human HCT-116 cells assessed as inhibition of cell growth incubated for 96 hrs by MTT based ELISA; assay type: functional; details: HCT-116, 96 h
[12] = Toxicity in Kunming mouse assessed as change in organ coefficient of kidney at 100 mg/kg,po administration for 2 weeks; assay type: organism-based; details: in vivo, 336 h
PC-3 = assay: Antiproliferative activity against human PC-3 cells assessed as inhibition of cell growth incubated for 96 hrs by MTT based ELISA; assay type: functional; details: PC-3, 96 h
NCI-H446 [13] = assay: Induction of cell cycle arrest in human NCI-H446 cells assessed as accumulation of cells at S phase at 1 to 2 uM incubated for 48 hrs by propidium iodide/RNase A staining based flow cytometry; assay type: functional; details: dose 1-2 µM
[14] = Toxicity in Kunming mouse assessed as morphological change in lung at 100 mg/kg,po administration for 2 weeks; assay type: organism-based; details: in vivo, 336 h
[15] = Toxicity in Kunming mouse assessed as change in serum ALT level at 100 mg/kg,po administration for 2 weeks; assay type: organism-based; details: in vivo, 336 h
[16] = target: DNA topoisomerase 2-alpha (Homo sapiens) (UniProt P11388); assay: Inhibition of Topoisomerase 2 (unknown origin) using pBR322 DNA as substrate at 50 uM incubated for 15 mins by EtBr staining based agarose gel electrophoresis method
NCI-H446 [17] = assay: Inhibition of colony formation in human NCI-H446 cells at 2 uM incubated for 24 hrs by crystal violet staining based analysis relative to control; assay type: functional
[18] = Toxicity in Kunming mouse assessed as morphological change in heart at 100 mg/kg,po administration for 2 weeks; assay type: organism-based; details: in vivo, 336 h
NCI-H1650 = assay: Antiproliferative activity against human NCI-H1650 cells assessed as inhibition of cell growth incubated for 96 hrs by MTT based ELISA; assay type: functional; details: NCI-H1650, 96 h
NCI-H446 [19] = assay: Induction of apoptosis in human NCI-H446 cells at 8 uM incubated for 48 hrs by Annexin V-FITC/PI staining based flow cytometry relative to control; assay type: functional
NCI-H446 [20] = assay: Induction of DNA damage in human NCI-H446 cells assessed as increase in intracellular ROS level at 4 to 8 uM incubated for 6 hrs by DCFHDA probe based fluorescence microscopic analysis; assay type: functional, cell-based; details: dose 4-8 µM
[21] = Tmax in ICR mouse at 10 mg/kg,po measured upto 24 hrs by LC-MS/MS analysis; assay type: ADME, organism-based; details: in vivo
NCI-H446 [22] = assay: Induction of cell cycle arrest in human NCI-H446 cells assessed as accumulation of cells at S phase at 2 uM incubated for 48 hrs by propidium iodide/RNase A staining based flow cytometry relative to control; assay type: functional
[23] = target: DNA topoisomerase 2-alpha (Homo sapiens) (UniProt P11388); assay: Inhibition of Topoisomerase 2 (unknown origin) using pBR322 DNA as substrate at 100 uM incubated for 15 mins by EtBr staining based agarose gel electrophoresis method relative to control

Compound | Activity [1] | inhibition [2] | Activity [3] | IC50 (DU-145) [nM] | Activity (NCI-H446 [4]) | IC50 (NCI-H2228) [nM] | half-life [5] [h] | Activity (NCI-H446 [6]) [%] | Activity [7] | IC50 (Huh-7) [nM] | inhibition at 2 µM (NCI-H446 [8]) [%] | Activity [9] | LD50 at 336 h [10] [mg/kg] | IC50 (MCF7) [nM] | IC50 (MDA-MB-231) [nM] | Cmax [11] [ng/mL] | IC50 (HCT-116) [nM] | Activity [12] | IC50 (PC-3) [nM] | Activity (NCI-H446 [13]) | other results
COc1ccc2c(c1)c1ncc3ccccc3c1n2CCCC(=O)NO | Non-Toxic | Active | Non-Toxic | 860 | Active | 2340 | 1.15 | 54.8 | Non-Toxic | 2500 | 73.2 | Non-Toxic | > 1000 | 670 | 550 | 109 | 530 | Non-Toxic | 970 | Active | Activity [14]: Non-Toxic; Activity [15]: Non-Toxic; inhibition [16]: Active; inhibition at 2 µM (NCI-H446 [17]): > 90%; Activity [18]: Non-Toxic; IC50 (NCI-H1650): 1020 nM; Activity (NCI-H446 [19]): 77.5%; Activity (NCI-H446 [20]): Active; Tmax [21]: 1 h; Activity (NCI-H446 [22]): 60.3%; inhibition [23]: > 95%
CN(C)CCCn1c2cc3c(cc2c2ncc4ccccc4c21)OCO3 | Non-Toxic | Active | Non-Toxic | 520 | Active | 880 | 1.66 | 65.4 | Non-Toxic | 830 | 77.1 | Non-Toxic | > 1000 | 350 | 290 | 284 | 210 | Non-Toxic | 400 | Active | Activity [14]: Non-Toxic; Activity [15]: Non-Toxic; inhibition [16]: Active; inhibition at 2 µM (NCI-H446 [17]): > 90%; Activity [18]: Non-Toxic; IC50 (NCI-H1650): 880 nM; Activity (NCI-H446 [19]): 95.3%; Activity (NCI-H446 [20]): Active; Tmax [21]: 2 h; Activity (NCI-H446 [22]): 61.1%; inhibition [23]: > 95%
